# Assay results as given in US8906425B2, “Stimulation of the synthesis of the activity of an isoform of lysyl oxidase-like LOXL for stimulating the formation of elastic fibers” (BASF Beauty Care Solutions France S.A.S., priority 2003, dated 2014).
# Marks after values point to notes of the source that are not given here.
# B1: IL-1 alpha: cytokine used as positive control at 50 pg/ml (protein, UniProt P01583 113-271, looked up)
# Interleukin-1 alpha: SAPFSFLSNVKYNFMRIIKYEFILNDALNQSIIRANDQYLTAAALHNLDEAVKFDMGAYKSSKDDAKITVILRISKTQLYVTAQDEDQPVLLKEMPEIPKTITGSETNLLFFWETHGTKNYFTSVAHPNLFIATKQDYWVCLAGGPPSITDFQILENQA
# Key:
# elastin mRNA [1] = experiment: Positive controls: stimulation of elastin mRNA synthesis by quantitative RT-PCR; format: cell-based; conditions: fibroblasts of normal human skin
# Method: (§1) The active principles were tested at 1% (v/v) on fibroblasts of normal human skin (originating from the foreskin of the infant or originating from the adult). The culture was carried out, e.g. in a monolayer on 24-well culture plates, in a defined medium without serum (Fibroblast Basal Medium). The cells were sown, e.g. at 40,000 per cm^2. At the confluence, the cells are placed in contact with the actives advantageously for 24 hours. In parallel, a non-treated control (medium alone) and three positive controls (TGF-β at 1 ng/ml, IL-1α at 50 pg/ml and Phytokine® (Coletica, Lyons, France) at 2% (v/v)) are advantageously carried out, e.g. on the same culture plate. The TGF-β at 1 ng/ml and the IL-1α at 50 pg/ml were tested beforehand and the stimulation of the synthesis of elastin mRNA induced by these two cytokines at these concentrations was verified by an analysis of the mRNAs, e.g. by quantitative RT-PCR (×10 for TGF-β and ×6 for IL-1 alpha). After the time of placing the actives in contact with the cells, e.g. 24 hours, the media are removed and the cells are preserved e.g. by dry freezing at −80° C. after a rinsing in phosphate buffer pH 7.4. The total RNAs are extracted e.g. with the aid of an extraction kit of 96 wells on silica columns and were determined on a 96-well spectrophotometer at 260 nm (purity indicator: protein determination at 280 nm). […]
# elastin (Eln) mRNA = experiment: Screening of active principles by qualitative RT-PCR, elastin mRNA; format: cell-based, human; conditions: actives at 1% (v/v), 24 hours, adult abdomen fibroblasts (donor), mRNA vs actin and non-treated control
# Method: as §1
# LOXL mRNA = experiment: Real time RT-PCR effectiveness study, LOXL mRNA; format: cell-based, human; conditions: 24 hours, adult fibroblasts (donor)
# Method: (§2) […] The culture was carried out e.g. in monolayer in 24-well plates, in a defined medium without serum. (Fibroblast Basal Medium). The cells are sown e.g. at 40,000 per cm^2. After the time of placing the actives in contact with the cells (24 hours), the media were removed and the cells were preserved e.g. by dry freezing at −80° C. after a rinsing with phosphate buffer at pH 7.4. At the end of experimentation, the content of mRNA of elastin, of LOXL and of actin is evaluated by an mRNA analysis technique, e.g. by real time RT-PCR. For this, the couples of primers enabling the amplification of specific fragments of these genes are those described above (Example 10).
# (§3) After extraction e.g. with the aid of an extraction kit in 96-wells on silica columns and determination on a 96-well spectrophotometer at 260 nm, the RNAs are diluted e.g. to 5 ng/μl. The RT-PCR reactions (Reverse Polymerase Transcription Chain Reactions) were carried out by quantitative real time RT-PCR with the aid of the “Opticon” system (MJ Research). Advantageously, the reaction mixture (50 μl) introduced into the wells was the following, for each sample: • 10 μl of RNA at a concentration of 5 ng/μl, • The specific primers of the various labels sought after, • Reaction mixture (Qiagen 25 μl 2xQuantiTect SYBR Green RT-PCR master mix containing 5 mM MgCl2+0.5 μl QuantiTect RT mix), the label SYBR Green I inserting in the DNA double strands during the elongation step. […] Analysis and Method of Calculation: The incorporation of fluorescence in the amplified DNA was evaluated continuously during the PCR cycles. This system enabled obtaining curves of fluorescence measurement as a function of the number of PCR cycles and thus enabled evaluating a relative amount of amplified DNA. […] According to the experimentation, the threshold of measurement of the C (T) (=Cycle Threshold) was fixed for T between 0.05 and 0.01, and then an arbitrary measurement unit is calculated for each gene according to the formula: Sgene ? x ? =10^7×(½)^C(T)gene ? ^x ? […]
# elastin mRNA [2] = experiment: Real time RT-PCR effectiveness study, elastin mRNA; format: cell-based, human; conditions: 24 hours, adult fibroblasts (donor)
# Method: as §2, §3
# LOX mRNA = experiment: Real time RT-PCR effectiveness study, LOX mRNA; format: cell-based, human; conditions: active at 5%, 24 hours, adult fibroblasts (donor)
molecule,measurement,setting,value
TGF-β [reference compound],stimulation of the synthesis of elastin mRNA (×),elastin mRNA [1]; TGF-β at 1 ng/ml,10
ethyl hexenoate,Eln Control multiplied by:,elastin (Eln) mRNA,1.5
CCCC(=O)OC [methyl butyrate],LOXL Control multiplied by:,LOXL mRNA; active at 0.01%,0.89
same,LOXL Control multiplied by:,LOXL mRNA; active at 1%,2.10*
same,LOXL Control multiplied by:,LOXL mRNA; active at 5%,0.91
same,El Control multiplied by:,elastin mRNA [2]; active at 0.01%,0.92
same,El Control multiplied by:,elastin mRNA [2]; active at 0.1%,0.96
same,El Control multiplied by:,elastin mRNA [2]; active at 5%,1.70*
same,LOX Control multiplied by:,LOX mRNA,0.91
B1,stimulation of the synthesis of elastin mRNA (×),elastin mRNA [1]; IL-1α at 50 pg/ml,6
